We go through 44 molecules from patent US8716475B2, “2-aminopyrimidine modulators of the histamine H4 receptor” (Janssen Pharmaceutica NV, priority 2007, dated 2014).

The structures appear in SMILES notation.

For orientation: Ki means a measure of affinity in units of concentration, obtained from inhibition or displacement.

The target of one assay is T1, human H4 receptor (Homo sapiens, UniProt Q9H3N8).
T1 construct: expressed in transfected cells
T1 sequence (Q9H3N8 whole entry): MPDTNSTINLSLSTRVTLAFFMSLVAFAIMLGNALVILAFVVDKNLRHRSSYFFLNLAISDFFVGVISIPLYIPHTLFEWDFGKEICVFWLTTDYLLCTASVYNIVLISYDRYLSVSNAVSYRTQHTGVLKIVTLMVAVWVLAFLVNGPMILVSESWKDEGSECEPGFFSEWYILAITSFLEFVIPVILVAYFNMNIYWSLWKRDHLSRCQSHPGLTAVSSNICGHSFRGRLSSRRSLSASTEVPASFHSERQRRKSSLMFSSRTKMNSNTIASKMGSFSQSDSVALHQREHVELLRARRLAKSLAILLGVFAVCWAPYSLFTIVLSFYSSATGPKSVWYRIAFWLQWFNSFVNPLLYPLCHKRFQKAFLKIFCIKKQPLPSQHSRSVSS
As to the kind of experiment: Binding Assay on Recombinant Human Histamine H4 Receptor. The note with it: Table 1; [3H] histamine competition binding, membranes of SK-N-MC cells transfected with human H4 receptor; average of results. The method, then:
Binding Assay on Recombinant Human Histamine H4 Receptor.
Cell pellets from SK-N-MC cells stably or transiently transfected with human H4 receptor were used for the binding assays. Cell pellets were homogenized in 50 mM Tris/5 mM EDTA buffer and supernatants from an 800g spin were collected and recentrifuged at 30,000g for 30 min. Pellets were rehomogenized in 50 mM Tris/5 mM EDTA buffer. […] Compounds were tested in free base, hydrochloride salt, or trifluoroacetic acid form. Nonspecific binding was defined with 100 μM cold histamine. […] Membranes were harvested by rapid filtration using the 96 well Brandel system or a cell harvester using a Whatman GF/C filter or filter plates treated with 0.5% polyethylenimine (PEI), and washed 4 times with ice-cold 50 mM Tris/5 mM EDTA buffer. Filters were then dried, mixed with scintillant and radioactive counts were determined. […] Data marked with an asterisk (*) were obtained by the cell harvester method. Where activity is shown as greater than (>) a particular value, the value is the highest concentration tested.
In the case of `CC(C)c1cc(N2C[C@H]3CCN[C@H]3C2)nc(N)n1` [Example 17, (R,R)-4-(Hexahydro-pyrrolo[3,4-b]pyrrol-5-yl)-6-isopropyl-pyrimidin-2-ylamine], the Ki was 59 nM.

As to `CNC1CN(c2cc(C3CCCC3)nc(N)n2)CC1O` (stereo not drawn) [Example 5, trans-1-(2-Amino-6-cyclopentyl-pyrimidin-4-yl)-4-methylamino-pyrrolidin-3-ol], the Ki worked out at 30 nM.

For `CCc1cc(N2C[C@H]3CCCN[C@H]3C2)nc(N)n1` [Example 39, (R,R)-(4-Ethyl-6-octahydro-pyrrolo[3,4-b]pyridin-6-yl)-pyrimidin-2-ylamine], the Ki amounted to 10 nM.

As for `CN1CCN(c2cc(C3CCOC3)nc(N)n2)CC1` (centres unmarked) [Example 57, 4-(4-Methyl-piperazin-1-yl)-6-(tetrahydro-furan-3-yl)-pyrimidin-2-ylamine], the Ki was 27 nM.

Take `Nc1nc(Cc2ccccc2)cc(N2CCNCC2)n1` [Example 62, 4-Benzyl-6-piperazin-1-yl-pyrimidin-2-ylamine]: the Ki was 30 nM.

With `CCc1cc(N2CCN(C)CC2)nc(N)n1` [Example 34, 4-Ethyl-6-(4-methyl-piperazin-1-yl)-pyrimidin-2-ylamine], the Ki worked out at 6 nM.

Regarding `Nc1nc(Cc2ccccc2)cc(N2C[C@H]3CCCN[C@H]3C2)n1` [Example 65, (R,R)-4-Benzyl-6-(octahydro-pyrrolo[3,4-b]pyridin-6-yl)-pyrimidin-2-ylamine], the Ki came out at 47 nM.

With `Cc1nc(N)nc(N2CCN(C)CC2)c1C` [Example 26, 4,5-Dimethyl-6-(4-methyl-piperazin-1-yl)-pyrimidin-2-ylamine], the Ki worked out at 177 nM.

Regarding `Cc1cc(N2CC3CCCNC3C2)nc(N)n1` (stereo not drawn) [Example 24, 4-Methyl-6-(cis-octahydro-pyrrolo[3,4-b]pyridin-6-yl)-pyrimidin-2-ylamine], the Ki amounted to 49 nM.

On to `Nc1nc(C2CCC2)cc(N2CCC[C@@H](N)C2)n1` [Example 45, (R)-4-(3-Amino-piperidin-1-yl)-6-cyclobutyl-pyrimidin-2-ylamine], for which the Ki came out at 103 nM.

In the case of `Nc1nc2c(c(N3C[C@@H]4C[C@H]3CN4)n1)CCCC2` [Example 73, (S,S)-4-(2,5-Diaza-bicyclo[2.2.1]hept-2-yl)-5,6,7,8-tetrahydro-quinazolin-2-ylamine], the Ki is greater than 10000 nM.

As for `Nc1nc(C2CCC2)cc(N2C[C@H]3CCCN[C@H]3C2)n1` [Example 51, (R,R)-(4-Cyclobutyl-6-cis-octahydro-pyrrolo[3,4-b]pyridin-6-yl)-pyrimidin-2-ylamine], the Ki is 3 nM.

As for `CCc1cc(N2CCNCC2)nc(N)n1` [Example 33, 4-Ethyl-6-piperazin-1-yl-pyrimidin-2-ylamine], the Ki amounted to 10 nM.

Consider `Nc1nc(C2CCOCC2)cc(N2CCNCC2)n1` [Example 58, 4-piperazin-1-yl-6-(tetrahydro-pyran-4-yl)-pyrimidin-2-ylamine], for which the Ki turned out to be 41 nM.

Turning to `Nc1nc(C2CCC2)cc(N2CCNCC2)n1` [Example 43, 4-Cyclobutyl-6-piperazin-1-yl-pyrimidin-2-ylamine], the Ki amounted to 2 nM.

Staying with this assay, now noted: Table 2, data marked with an asterisk (*): obtained by the cell harvester method; [3H] histamine competition binding, SK-N-MC membranes.
`CCCCc1nc(N)nc(N(C)CCN)c1OC` [Example 109, N^4-(2-Amino-ethyl)-6-butyl-5-methoxy-N^4-methyl-pyrimidine-2,4-diamine]: the Ki came out at 517 nM.

The same assay, now with this note: Table 2; [3H] histamine competition binding, membranes of SK-N-MC cells transfected with human H4 receptor; average of results.
Regarding `CN[C@@H]1CCN(c2nc(N)nc3c2COCC3)C1` [Example 99, (R)-4-(3-Methylamino-pyrrolidin-1-yl)-7,8-dihydro-5H-pyrano[4,3-d]pyrimidin-2-ylamine], the Ki came out at 214 nM.

Take `NCCNc1cc(C2CCOC2)nc(N)n1` (centres unmarked) [Example 195, N^4-(2-Amino-ethyl)-6-(tetrahydro-furan-3-yl)-pyrimidine-2,4-diamine]: the Ki was 59 nM.

As to `CCCCc1nc(N)nc(NCCN)c1OC` [Example 110, N^4-(2-Amino-ethyl)-6-butyl-5-methoxy-pyrimidine-2,4-diamine], the Ki stood at 80 nM.

As for `CN[C@@H]1CCN(c2cc(C3CC3c3ccccc3)nc(N)n2)C1` (single isomer, unassigned) [Example 256], the Ki turned out to be 5 nM.

Take `Nc1nc(Cc2ccccc2)cc(N2CC[C@@H](N)C2)n1` [Example 167, (R)-4-(3-Amino-pyrrolidin-1-yl)-6-benzyl-pyrimidin-2-ylamine]: the Ki is 78 nM.

For the molecule `CN1CCN(c2cc(C3Cc4ccccc4C3)nc(N)n2)CC1` [Example 163, 4-Indan-2-yl-6-(4-methyl-piperazin-1-yl)-pyrimidin-2-ylamine], the Ki stood at 2 nM.

In the case of `COc1c(C2CCCC2)nc(N)nc1N1CCNCC1` [Example 186, 4-Cyclopentyl-5-methoxy-6-piperazin-1-yl-pyrimidin-2-ylamine], the Ki was determined as 213 nM.

As to `CN1CCN(c2cc(C3(C)CCOCC3)nc(N)n2)CC1` [Example 154, 4-(4-Methyl-piperazin-1-yl)-6-(4-methyl-tetrahydro-pyran-4-yl)-pyrimidin-2-ylamine], the Ki is 49 nM.

For `COCc1cc(N2C[C@H]3CCCN[C@H]3C2)nc(N)n1` [Example 226, (R,R)-4-Methoxymethyl-6-(octahydro-pyrrolo[3,4-b]pyridin-6-yl)-pyrimidin-2-ylamine], the Ki is 14 nM.

With `CN1CCN(c2cc(Cc3cccs3)nc(N)n2)CC1` [Example 213, 4-(4-Methyl-piperazin-1-yl)-6-thiophen-2-ylmethyl-pyrimidin-2-ylamine], the Ki was determined as 4 nM.

As to `CC(C)Cc1cc(N2CCNCC2)nc(N)n1` [Example 147, 4-Isobutyl-6-piperazin-1-yl-pyrimidin-2-ylamine], the Ki amounted to 4 nM.

On to `COc1c(C2CCCC2)nc(N)nc1N1CC(N)C1` [Example 111, 4-(3-Amino-azetidin-1-yl)-6-cyclopentyl-5-methoxy-pyrimidin-2-ylamine], for which the Ki was 33 nM.

In the case of `CN(CCN)c1cc(C2CCOCC2)nc(N)n1` [Example 177, N^4-(2-Amino-ethyl)-N^4-methyl-6-(tetrahydro-pyran-4-yl)-pyrimidine-2,4-diamine], the Ki is 1030 nM.

For the molecule `CN(CCN)c1cc(C2CCOC2)nc(N)n1` (centres unmarked) [Example 189, N^4-(2-Amino-ethyl)-N^4-methyl-6-(tetrahydro-furan-3-yl)-pyrimidine-2,4-diamine], the Ki came to 6 nM.

On to `Nc1nc(C2Cc3ccccc3C2)cc(N2CCNCC2)n1` [Example 165, 4-Indan-2-yl-6-piperazin-1-yl-pyrimidin-2-ylamine], for which the Ki is 2 nM.

Take `CN[C@@H]1CCN(c2cc(C3(C)CCOCC3)nc(N)n2)C1` [Example 155, (R)-4-(3-Methylamino-pyrrolidin-1-yl)-6-(4-methyl-tetrahydro-pyran-4-yl)-pyrimidin-2-ylamine]: the Ki is 82 nM.

Regarding `COc1c(C2CCCC2)nc(N)nc1N1CCN(C)CC1` [Example 185, 4-Cyclopentyl-5-methoxy-6-(4-methyl-piperazin-1-yl)-pyrimidin-2-ylamine], the Ki amounted to 300 nM.

Consider `Cc1nc(N)nc(N(C)CCN)c1F` [Example 203, N^4-(2-Amino-ethyl)-5-fluoro-6,N^4-dimethyl-pyrimidine-2,4-diamine], for which the Ki worked out at 4230 nM.

With `CCCCc1nc(N)nc(N2CCNCC2)c1OC` [Example 101, 4-Butyl-5-methoxy-6-piperazin-1-yl-pyrimidin-2-ylamine], the Ki amounted to 30 nM.

Consider `CCCCc1nc(N)nc(N2CCCNCC2)c1OC` [Example 102, 4-Butyl-6-[1,4]diazepan-1-yl-5-methoxy-pyrimidin-2-ylamine], for which the Ki is 181 nM.

As for `CC1(c2cc(N3CCNCC3)nc(N)n2)CCOCC1` [Example 153, 4-(4-Methyl-tetrahydro-pyran-4-yl)-6-piperazin-1-yl-pyrimidin-2-ylamine], the Ki was determined as 97 nM.

In the case of `Nc1nc2c(c(N3CC(N)C3)n1)COCC2` [Example 252, 4-(3-Amino-azetidin-1-yl)-7,8-dihydro-5H-pyrano[4,3-d]pyrimidin-2-ylamine], the Ki is greater than 10000 nM.

On to `Nc1nc2c(c(N3CC(N)C3)n1)CCCC2` [Example 253, 4-(3-Amino-azetidin-1-yl)-5,6,7,8-tetrahydro-quinazolin-2-ylamine], for which the Ki was greater than 10000 nM.

`CCCc1cc(N2CCN(C)CC2)nc(N)n1` [Example 144, 4-(4-Methyl-piperazin-1-yl)-6-propyl-pyrimidin-2-ylamine]: the Ki was 6 nM.

`Nc1nc(C2Cc3ccccc3O2)cc(N2CC(N)C2)n1` (centres unmarked) [Example 172, 4-(3-Amino-azetidin-1-yl)-6-(2,3-dihydro-benzofuran-2-yl)-pyrimidin-2-ylamine]: the Ki is 932 nM.

With `CC(C)(C)c1cc(N2CC3CCC(C2)N3)nc(N)n1` [Example 134, 4-tert-Butyl-6-(3,8-diaza-bicyclo[3.2.1]oct-3-yl)-pyrimidin-2-ylamine], the Ki was 130 nM.

Consider `CN1C[C@@H]2CN(c3cc(CC4CCCO4)nc(N)n3)C[C@@H]2C1` (stereo partly drawn) [Example 229, 4-(cis-5-Methyl-hexahydro-pyrrolo[3,4-c]pyrrol-2-yl)-6-(tetrahydro-furan-2-ylmethyl)-pyrimidin-2-ylamine], for which the Ki was found to be 360 nM.

`Nc1nc(C2CC2)cc(N2C[C@H]3CNC[C@H]3C2)n1` [Example 124, 4-Cyclopropyl-6-(cis-hexahydro-pyrrolo[3,4-c]pyrrol-2-yl)-pyrimidin-2-ylamine]: the Ki was greater than 10000 nM.
